54 compounds from ChEMBL document CHEMBL6096661, “Synthesis, biological evaluation and mechanism study of a novel indole-pyridine chalcone derivative as antiproliferative agent against tumor cells through dual targeting tubulin and HK2” (Eur J Med Chem, 2025) can be followed below.

What is called IC50 is the point on the concentration scale where inhibition reaches its midpoint.

What all share (format): functional, cell-based
In assay [1] the test system is MDA-MB-231. In words: Antiproliferative activity against human MDA-MB-231 cells assessed as reduction in cell proliferation incubated for 48 hrs by CCK-8 assay. To be noted: MDA-MB-231, 48 h.
The subject of assay [2] is SW480. Description: Antiproliferative activity against human SW480 cells assessed as inhibition of cell growth incubated for 48 hrs by CCK-8 assay. To be noted: SW480, 48 h. (Tetrazolium dyes change colour on reduction, which living cells bring about.)
Assay [3] has as its system HT-1080. Description: Antiproliferative activity against human HT-1080 cells assessed as inhibition of cell growth incubated for 48 hrs by CCK-8 assay. The conditions noted are these: HT-1080, 48 h.
The test system of assay [4] is HCT-116. Description: Antiproliferative activity against human HCT-116 cells assessed as inhibition of cell growth incubated for 48 hrs by CCK-8 assay. To be noted: HCT-116, 48 h.
In assay [5] the test system is LoVo. In words: Antiproliferative activity against human LoVo cells assessed as inhibition of cell growth incubated for 48 hrs by CCK-8 assay.

Turning to `O=C(/C=C/c1cn(S(=O)(=O)c2ccc([N+](=O)[O-])cc2)c2ccc(N3CCOCC3)cc12)c1ccc(N2CCCCC2)nc1`, the IC50 in assay [1] was determined as 151 µM.
`O=C(/C=C/c1cn(S(=O)(=O)c2ccc3ccccc3c2)c2ccc(N3CCOCC3)cc12)c1ccncc1`: in assay [1], the IC50 worked out at 12.8 µM.
On to `O=C(/C=C/c1cn(S(=O)(=O)c2cccnc2)c2ccc(N3CCOCC3)cc12)c1ccncc1`, for which the IC50 in assay [1] is 2.89 µM.
Still for that read-out and setting: the value for `COc1ccc(C(=O)/C=C/c2cn(S(=O)(=O)c3ccc([N+](=O)[O-])cc3)c3ccc(N4CCOCC4)cc23)cn1` was 73.9 µM; that for `O=Cc1c[nH]c2ccc(N3CCOCC3)cc12` was 88.6 µM.
As to `COc1ccc(S(=O)(=O)n2cc(/C=C/C(=O)c3ccncc3)c3cc(N4CCOCC4)ccc32)cc1`, the IC50 in assay [1] amounted to 7.58 µM.
The same measure, in the same setting: for `CC(=O)n1cc(/C=C/C(=O)c2ccncc2)c2cc(N3CCOCC3)ccc21` the value was 7.77 µM.
As for `O=C(/C=C/c1cn(S(=O)(=O)c2ccc([N+](=O)[O-])cc2)c2cc(N3CCOCC3)ccc12)c1cccnc1`, the IC50 in assay [2] was 0.718 µM; in assay [1], 0.857 µM; in assay [3], 0.773 µM; in assay [4] it was 1.7 µM; in assay [5], 0.792 µM.
In the case of `O=C(/C=C/c1cn(S(=O)(=O)c2ccc([N+](=O)[O-])cc2)c2ccc(N3CCOCC3)cc12)c1cncc2ccccc12`, the IC50 in assay [1] worked out at 8.7 µM.
On to `O=C(/C=C/c1cn(Cc2ccccc2)c2ccc(N3CCOCC3)cc12)c1ccncc1`, for which, in assay [1], the IC50 was found to be 148 µM.
For `O=C(/C=C/c1cn(S(=O)(=O)c2ccc([N+](=O)[O-])cc2)c2ccc(N3CCOCC3)cc12)c1nccs1`, the IC50 in assay [1] was 8 µM.
Consider `O=C(/C=C/c1cn(S(=O)(=O)c2ccc([N+](=O)[O-])cc2)c2ccc(N3CCOCC3)cc12)c1ccccn1`, for which the IC50 in assay [2] was found to be 1.08 µM; in assay [1], 0.915 µM; in assay [3], 0.793 µM; in assay [4], 1.04 µM; in assay [5], 0.74 µM.
As to `O=C(/C=C/c1cn(S(=O)(=O)c2cccc3ccccc23)c2ccc(N3CCOCC3)cc12)c1ccncc1`, the IC50 in assay [1] amounted to 45.4 µM.
Regarding `O=C(/C=C/c1cn(S(=O)(=O)c2ccc([N+](=O)[O-])cc2)c2ccc(N3CCOCC3)cc12)c1ccco1`, in assay [1], the IC50 amounted to 27.1 µM.
`c1cc(C2=NNC(c3c[nH]c4ccc(N5CCOCC5)cc34)C2)ccn1` (configuration not stated): the IC50 in assay [1] came to 180 µM.
Consider `N#Cc1ccc(S(=O)(=O)n2cc(/C=C/C(=O)c3ccncc3)c3cc(N4CCOCC4)ccc32)cc1`, for which the IC50 in assay [1] was found to be 5.48 µM.
As for `Cc1ccc(C(=O)/C=C/c2cn(S(=O)(=O)c3ccc([N+](=O)[O-])cc3)c3ccc(N4CCOCC4)cc23)cn1`, the IC50 in assay [1] was found to be 6.25 µM.
Same read-out and setting: the value for `Cc1ccc(S(=O)(=O)n2cc(/C=C/C(=O)c3ccncc3)c3cc(N4CCOCC4)ccc32)cc1` was 3.51 µM.
Take `O=C(/C=C/c1cn(S(=O)(=O)c2ccc([N+](=O)[O-])cc2)c2ccc(N3CCCCC3)cc12)c1cccnc1`: the IC50 in assay [2] came out at 0.999 µM; in assay [1] it was 0.816 µM; in assay [3], 0.751 µM; in assay [4] it was 3.19 µM; in assay [5], 0.765 µM.
Consider `COc1cc(C(=O)/C=C/c2c[nH]c3ccc(N4CCOCC4)cc23)cc(OC)c1OC`, for which, in assay [1], the IC50 was 11.2 µM.
On to `Cc1ccc(C(=O)/C=C/c2cn(S(=O)(=O)c3ccc([N+](=O)[O-])cc3)c3ccc(N4CCOCC4)cc23)c(C)n1`, for which the IC50 in assay [2] worked out at 0.655 µM; in assay [1] it was 1.07 µM; in assay [3], 0.754 µM; in assay [4], 1.13 µM; in assay [5], 0.221 µM.
With `O=C(/C=C/c1cn(S(=O)(=O)c2cccs2)c2ccc(N3CCOCC3)cc12)c1ccncc1`, the IC50 in assay [1] is 7.53 µM.
Take `COc1cc(C(=O)/C=C/c2cn(S(=O)(=O)c3ccc(C)cc3)c3ccc(N4CCOCC4)cc23)cc(OC)c1OC`: the IC50 in assay [1] came out at 19.9 µM.
Turning to `O=C(/C=C/c1cn(S(=O)(=O)c2ccc([N+](=O)[O-])cc2)c2ccc(N3CCOCC3)cc12)c1ncccn1`, the IC50 stood at 2.03 µM in assay [2]; 1.81 µM in assay [1]; 1.19 µM in assay [3]; 3.46 µM in assay [4]; 1.3 µM in assay [5].
On to `O=C(/C=C/c1cn(S(=O)(=O)c2ccc(F)cc2)c2ccc(N3CCOCC3)cc12)c1ccncc1`, for which, in assay [1], the IC50 was determined as 5.48 µM.
Consider `COc1ccc(C(=O)/C=C/c2cn(S(=O)(=O)c3ccc([N+](=O)[O-])cc3)c3ccc(N4CCOCC4)cc23)c(OC)n1`, for which the IC50 in assay [1] was 416 µM.
For `COc1ccc2c(c1)c(/C=C/C(=O)c1ccncc1)cn2S(=O)(=O)c1ccc(C)cc1`, in assay [1], the IC50 is 3.81 µM.
Turning to `O=C(/C=C/c1cn(S(=O)(=O)c2ccc(Br)cc2)c2ccc(N3CCOCC3)cc12)c1ccncc1`, in assay [1], the IC50 was 9.53 µM.
Take `COc1cc(C(=O)/C=C/c2cn(S(=O)(=O)c3ccc([N+](=O)[O-])cc3)c3ccc(N4CCOCC4)cc23)cc(OC)c1OC`: the IC50 in assay [1] was found to be 15.6 µM.
Regarding `O=[N+]([O-])c1ccc(S(=O)(=O)n2cc(C3CC(c4ccncc4)=NO3)c3cc(N4CCOCC4)ccc32)cc1` (configuration not stated), the IC50 in assay [1] stood at 150 µM.
With `O=C(/C=C/c1cn(S(=O)(=O)c2ccc([N+](=O)[O-])cc2)c2ccc(N3CCSCC3)cc12)c1cccnc1`, in assay [1], the IC50 was found to be 3.94 µM.
In the case of `Cc1ccc(S(=O)(=O)n2cc(/C=C/C(=O)c3ccncc3)c3ccccc32)cc1`, the 50% inhibitory concentration (IC50) in assay [1] was found to be 8.49 µM.
`Cc1[nH]c2ccc(N3CCOCC3)cc2c1/C=C/C(=O)c1cccnc1`: the IC50 in assay [1] came to 42.5 µM.
As for `O=C(/C=C/c1cn(S(=O)(=O)c2ccccc2)c2ccc(N3CCOCC3)cc12)c1ccncc1`, the IC50 in assay [1] was determined as 7.29 µM.
`O=C(/C=C/c1c[nH]c2ccc(N3CCOCC3)cc12)c1ccncc1`: the IC50 in assay [1] worked out at 39.3 µM.
`Cc1ccc(S(=O)(=O)n2cc(C=O)c3cc(N4CCOCC4)ccc32)cc1`: the IC50 in assay [1] was 15.9 µM.
Regarding `CC(C)(C)OC(=O)n1cc(/C=C/C(=O)c2ccncc2)c2cc(N3CCOCC3)ccc21`, the IC50 in assay [1] is 7.52 µM.
Turning to `c1cncc(C2=NOC(c3c[nH]c4ccc(N5CCOCC5)cc34)C2)c1` (configuration not stated), the IC50 in assay [1] stood at 90.3 µM.
Consider `O=C(/C=C/c1cn(S(=O)(=O)c2ccc([N+](=O)[O-])cc2)c2ccc(N3CCOCC3)cc12)c1ccccc1`, for which the IC50 in assay [1] was found to be 23.9 µM.
On the same count and under the same terms, the value for `O=C(/C=C/c1cn(S(=O)(=O)Cc2ccccc2)c2ccc(N3CCOCC3)cc12)c1ccncc1` was 2.5 µM; that for `O=C(/C=C/c1cn(C(=O)c2ccccc2)c2ccc(N3CCOCC3)cc12)c1ccncc1` was 7.7 µM.
Regarding `O=C(/C=C/c1cn(S(=O)(=O)c2ccc(Cl)cc2)c2ccc(N3CCOCC3)cc12)c1ccncc1`, the IC50 in assay [1] is 7.19 µM.
Consider `O=C(/C=C/c1cn(S(=O)(=O)c2ccc(I)cc2)c2ccc(N3CCOCC3)cc12)c1ccncc1`, for which the IC50 in assay [1] amounted to 20.5 µM.
In the case of `C/C(=C\c1c[nH]c2ccc(N3CCOCC3)cc12)C(=O)c1cccnc1`, the half-inhibitory concentration (IC50) in assay [1] was 56.6 µM.
For `c1cc(C2=NOC(c3c[nH]c4ccc(N5CCOCC5)cc34)C2)ccn1` (configuration not stated), the IC50 in assay [1] was 200 µM.
As to `COc1cc(C(=O)/C=C/c2cn(C(=O)c3cc(OC)c(OC)c(OC)c3)c3ccc(N4CCOCC4)cc23)cc(OC)c1OC`, the IC50 in assay [1] came out at 13.8 µM.
Turning to `O=C(/C=C/c1cn(S(=O)(=O)c2ccc([N+](=O)[O-])cc2)c2ccc(N3CCOCC3)cc12)c1cncnc1`, the IC50 in assay [2] worked out at 0.716 µM; in assay [1], 1.59 µM; in assay [3] it was 0.469 µM; in assay [4], 1.57 µM; in assay [5] it was 0.679 µM.
For `COc1cc(C(=O)/C=C/c2cn(CO)c3ccc(N4CCOCC4)cc23)cc(OC)c1OC`, the IC50 in assay [1] is 12.5 µM.
On the same count and under the same terms, for `C/C(=C\c1cn(S(=O)(=O)c2ccc([N+](=O)[O-])cc2)c2ccc(N3CCOCC3)cc12)C(=O)c1cccnc1` the value was 43.1 µM.
In the case of `O=C(/C=C/c1cn(S(=O)(=O)c2ccc([N+](=O)[O-])cc2)c2ccc(N3CCOCC3)cc12)c1ccncc1`, the IC50 in assay [2] was 1.08 µM; in assay [1] it was 1.53 µM; in assay [3], 0.681 µM; in assay [4], 1.85 µM; in assay [5], 0.392 µM.
For the compound `O=C(/C=C/c1cn(S(=O)(=O)c2ccc(C(F)(F)F)cc2)c2ccc(N3CCOCC3)cc12)c1ccncc1`, in assay [1], the IC50 came out at 4.81 µM.
For `CC(C)(C)c1ccc(S(=O)(=O)n2cc(/C=C/C(=O)c3ccncc3)c3cc(N4CCOCC4)ccc32)cc1`, the IC50 in assay [1] came out at 7.98 µM.
On to `COc1cc(C(=O)/C=C/c2cn(C)c3ccc(N4CCOCC4)cc23)cc(OC)c1OC`, for which, in assay [1], the IC50 was 12.1 µM.
The same measure, in the same setting: for `O=C(/C=C/c1cn(S(=O)(=O)c2ccc([N+](=O)[O-])cc2)c2ccc(N3CCOCC3)cc12)c1cnc2ccccc2c1` the value was 104 µM.
